# Where a name gives a salt, the structure may show the parent alone.
# Tested on: voltage operated calcium channels
# Experiment: Inhibition of potassium (depolarization) stimulated 45Ca uptake into rat cerebral cortex synaptosomes
# Assay type: biochemical, male Wistar rat
# Settings: concentration inhibiting 20% of potassium stimulated 45Ca uptake, corrected for basal uptake, 145 mM KCl, 15 seconds, 37° C.
# Text: A high influx of calcium from extracelluar compartments into neurons is seen after opening of voltage operated calcium channels. Such opening of calcium channels may be induced by depolarization of neuronal membranes.
# A crude synaptosome preparation contains small vesicles surrounded by neuronal membranes, and it is possible to study an opening of the voltage operated calcium channels in such a preparation.
# In the below described test influx of ^45 Ca into synaptosomes is studied under depolarized conditions. The effect of test substances on the depolarization induced calcium uptake can thus be studied.
# The cerebral cortex from a male Wistar rat is homogenized in 20 ml ice cold 0.32M saccharose. In the following steps the temperature is kept at 0° C. to 4° C. The homogenate is centrifuged at 1,000×g for 10 minutes and the supernatant recentrifuged for 20 minutes at 18,000×g. […]
# The ^45 Ca uptake is stopped by filtering through glass fibre filters, which are subsequently washed 3 times with an ice cold solution of 145 mM KCl, 7 mM EGTA and 20 mM Tris HCl, pH 7.4 (5. ml). The radioactivity on the filters are measured by liquid scintillation spectrometry. […]
# The test value is given as IC20, that is the concentration in μM of the test substances, which inhibit 20% of the potassium stimulated uptake of ^45 Ca. […] The IC20 value is determined from a dose response curve.
smiles,measurement,value
"O=C(c1ccccc1)C(c1ccccc1)N1CCN=C1CN(Cc1ccccc1)c1ccccc1 (stereo not drawn) [1-(α-Benzoylbenzyl)-2-(N-phenyl-N-(benzyl)-methanamine)-4,5-dihydro-imidazole]",IC20,400 nM
"c1ccc(CN2CCN=C2CN(Cc2ccccc2)c2ccccc2)cc1 [1-benzyl-2-(N-phenyl-N-benzyl-methanamine)-4,5-dihydro-imidazole, hydrochloride]",IC20,400 nM

# Reference: patent US5296493A, “1-substituted-2-(N-pheny l-N-(phenylmethyl)methanamine)-4,5-dihydro-imidazoles and related compounds and their use in treating calcium overload in brain cells” (NeuroSearch A/S, priority 1991, dated 1994)
